From patent publication US10501516B2, “Peptide compound” (TAKEDA PHARMACEUTICAL COMPANY LIMITED, priority 2016, dated 2019)
Square brackets hold non-standard residues; d marks the D form. Side chains are listed from the residue outwards. Peptide text beside a SMILES is read from it. * marks the point of attachment. Phe(2-F) = N[C@@H](Cc1ccccc1F)C(=O)O; NMeY = CN[C@@H](Cc1ccc(O)cc1)C(=O)O; Palmitoyl = CCCCCCCCCCCCCCCC(=O)*; αMeF = C[C@](N)(Cc1ccccc1)C(=O)O; Iva = CC[C@](C)(N)C(=O)O; Aib = CC(C)(N)C(=O)O

test system: male C57BL/6J mouse; assay: Evaluation of feeding suppressive action in mice; type: in vivo; conditions: 30 nmol/kg s.c. once a day for 3 days; 3-days cumulative food consumption vs solvent control
Protocol: The feeding suppressive activity of a test compound was examined by the method described below.
The test compound was dissolved at a concentration of 30 or 100 nmol/2 mL in a solvent (10% DMSO-containing physiological saline). The test compound solution was subcutaneously administered at a dose of 2 mL/kg to the back of each male C57BL/6J mouse at 8-9 weeks of age (20-26° C., allowed to take food and water ad libitum; raised in the 12-hour bright-12-hour dark cycle). The administration was performed once a day for 3 days. After the administration, the mouse was individually raised in a rearing cage, and given previously weighed food; food consumption for 3 days after the start of administration was measured. The food consumption was calculated by subtracting the amount of remaining food from the weight of the food given on the day of the start of administration. When the food consumption of a control group receiving administration of the solvent alone was regarded as a suppression rate of 0%, the feeding suppressive activity of each test compound was evaluated on the basis of 3-days cumulative food consumption after the start of administration. The food intake suppression rate (%) of the test compound was defined as (Food consumption of the control group−Food consumption of the test compound-administered group)/Food consumption of the control group×100.

SMILES | Rate of feeding suppression (%)
CCCCCCCCCCCCCCCC(=O)NCC(=O)NCC(=O)NCC(=O)NCC(=O)NCCCC[C@H](NC(=O)[C@H](CC(=O)O)NC(=O)[C@H](CO)NC(=O)[C@@H](NC(=O)[C@](C)(Cc1ccccc1)NC(=O)[C@@H](NC(=O)CNC(=O)[C@H](CCC(=O)O)NC(=O)C(C)(C)NC(=O)[C@@H](N)Cc1ccc(O)cc1)[C@@H](C)O)[C@@H](C)O)C(=O)NC(C)(C)C(=O)N[C@H](C(=O)NC(C)(C)C(=O)N[C@@H](CC(C)C)C(=O)N[C@@H](CC(=O)O)C(=O)N[C@@H](CCCCN)C(=O)N[C@@H](CCC(N)=O)C(=O)N[C@@H](C)C(=O)N[C@@H](CCC(N)=O)C(=O)N[C@@](C)(CC)C(=O)N[C@@H](CCC(=O)O)C(=O)N[C@@H](Cc1ccccc1)C(=O)N[C@H](C(=O)N[C@@H](CCCNC(=N)N)C(=O)N[C@@H](Cc1c[nH]cn1)C(=O)N[C@@H](CC(C)C)C(=O)N[C@@H](CC(C)C)C(=O)N[C@@H](CC(N)=O)C(=O)N[C@@H](CCCCN)C(=O)NC(C)(C)C(=O)N[C@H](C(=O)N[C@@H](CCCNC(=N)N)C(=O)N[C@@H](CCC(N)=O)C(=O)N[C@@H](CCCNC(=N)N)C(=O)N[C@@H](Cc1ccccc1F)C(N)=O)[C@@H](C)O)C(C)C)[C@@H](C)CC [Example 1] (H-Y[Aib]EGT[αMeF]TSDK([Gly-Gly-Gly-Gly-Palmitoyl])[Aib]I[Aib]LDKQAQ[Iva]EFVRHLLNK[Aib]TRQR[Phe(2-F)]-NH2) | −37.1%
CCCCCCCCCCCCCCCC(=O)NCC(=O)NCC(=O)NCC(=O)NCC(=O)NCCCC[C@H](NC(=O)[C@H](CC(=O)O)NC(=O)[C@H](CO)NC(=O)[C@@H](NC(=O)[C@](C)(Cc1ccccc1)NC(=O)[C@@H](NC(=O)CNC(=O)[C@H](CCC(=O)O)NC(=O)C(C)(C)NC(=O)[C@@H](N)Cc1ccc(O)cc1)[C@@H](C)O)[C@@H](C)O)C(=O)N[C@@H](C)C(=O)N[C@H](C(=O)NC(C)(C)C(=O)N[C@@H](CC(C)C)C(=O)N[C@@H](CC(=O)O)C(=O)N[C@@H](CCCCN)C(=O)N[C@@H](CCC(N)=O)C(=O)N[C@@H](CCCNC(=N)N)C(=O)N[C@@H](CCC(N)=O)C(=O)N[C@@](C)(CC)C(=O)N[C@@H](CCC(=O)O)C(=O)N[C@@H](Cc1ccccc1)C(=O)N[C@H](C(=O)N[C@@H](CCCNC(=N)N)C(=O)N[C@@H](Cc1c[nH]cn1)C(=O)N[C@@H](CC(C)C)C(=O)N[C@@H](CC(C)C)C(=O)N[C@@H](CC(N)=O)C(=O)N[C@@H](CCCCN)C(=O)NC(C)(C)C(=O)N[C@H](C(=O)N[C@@H](CCCNC(=N)N)C(=O)N[C@@H](CCC(N)=O)C(=O)N[C@@H](CCCNC(=N)N)C(=O)N[C@@H](Cc1ccc(O)cc1)C(N)=O)[C@@H](C)O)C(C)C)[C@@H](C)CC [Example 11] (H-Y[Aib]EGT[αMeF]TSDK([Gly-Gly-Gly-Gly-Palmitoyl])AI[Aib]LDKQRQ[Iva]EFVRHLLNK[Aib]TRQRY-NH2) | −48.1%
CCCCCCCCCCCCCCCC(=O)NCC(=O)NCC(=O)NCC(=O)NCC(=O)NCCCC[C@H](NC(=O)[C@H](CC(=O)O)NC(=O)[C@H](CO)NC(=O)[C@@H](NC(=O)[C@](C)(Cc1ccccc1)NC(=O)[C@@H](NC(=O)CNC(=O)[C@H](CCC(=O)O)NC(=O)C(C)(C)NC(=O)[C@@H](N)Cc1ccc(O)cc1)[C@@H](C)O)[C@@H](C)O)C(=O)N[C@@H](CO)C(=O)N[C@H](C(=O)NC(C)(C)C(=O)N[C@@H](CC(C)C)C(=O)N[C@@H](CC(=O)O)C(=O)N[C@@H](CCCCN)C(=O)N[C@@H](CCC(N)=O)C(=O)N[C@@H](CCCNC(=N)N)C(=O)N[C@@H](CCC(N)=O)C(=O)N[C@@](C)(CC)C(=O)N[C@@H](CCC(=O)O)C(=O)N[C@@H](Cc1ccccc1)C(=O)N[C@H](C(=O)N[C@@H](CCCNC(=N)N)C(=O)N[C@@H](Cc1c[nH]cn1)C(=O)N[C@@H](CC(C)C)C(=O)N[C@@H](CC(C)C)C(=O)N[C@@H](CC(N)=O)C(=O)N[C@@H](CCCCN)C(=O)NC(C)(C)C(=O)N[C@H](C(=O)N[C@@H](CCCNC(=N)N)C(=O)N[C@@H](CCC(N)=O)C(=O)N[C@@H](CCCNC(=N)N)C(=O)N[C@@H](Cc1ccc(O)cc1)C(N)=O)[C@@H](C)O)C(C)C)[C@@H](C)CC [Example 15] (H-Y[Aib]EGT[αMeF]TSDK([Gly-Gly-Gly-Gly-Palmitoyl])SI[Aib]LDKQRQ[Iva]EFVRHLLNK[Aib]TRQRY-NH2) | −41.2%
CCCCCCCCCCCCCCCC(=O)NCC(=O)NCC(=O)NCC(=O)NCC(=O)NCCCC[C@H](NC(=O)[C@H](CC(=O)O)NC(=O)[C@H](CO)NC(=O)[C@@H](NC(=O)[C@](C)(Cc1ccccc1)NC(=O)[C@@H](NC(=O)CNC(=O)[C@H](CCC(=O)O)NC(=O)C(C)(C)NC(=O)[C@@H](N)Cc1ccc(O)cc1)[C@@H](C)O)[C@@H](C)O)C(=O)NC(C)(C)C(=O)N[C@@H](CCCCN)C(=O)NC(C)(C)C(=O)N[C@@H](CC(C)C)C(=O)N[C@@H](CC(=O)O)C(=O)N[C@@H](CCCCN)C(=O)N[C@@H](CCC(N)=O)C(=O)N[C@@H](CCCNC(=N)N)C(=O)N[C@@H](CCC(N)=O)C(=O)N[C@@](C)(CC)C(=O)N[C@@H](CCC(=O)O)C(=O)N[C@@H](Cc1ccccc1)C(=O)N[C@H](C(=O)N[C@@H](CCCNC(=N)N)C(=O)N[C@@H](Cc1c[nH]cn1)C(=O)N[C@@H](CC(C)C)C(=O)N[C@@H](CC(C)C)C(=O)N[C@@H](CC(N)=O)C(=O)N[C@@H](CCCCN)C(=O)NC(C)(C)C(=O)N[C@H](C(=O)N[C@@H](CCCNC(=N)N)C(=O)N[C@@H](CCC(N)=O)C(=O)N[C@@H](CCCNC(=N)N)C(=O)N[C@@H](Cc1ccc(O)cc1)C(N)=O)[C@@H](C)O)C(C)C [Example 19] (H-Y[Aib]EGT[αMeF]TSDK([Gly-Gly-Gly-Gly-Palmitoyl])[Aib]K[Aib]LDKQRQ[Iva]EFVRHLLNK[Aib]TRQRY-NH2) | −37.0%
CCCCCCCCCCCCCCCC(=O)NCC(=O)NCC(=O)NCC(=O)NCC(=O)NCCCC[C@H](NC(=O)[C@H](CC(=O)O)NC(=O)[C@H](CO)NC(=O)[C@@H](NC(=O)[C@](C)(Cc1ccccc1)NC(=O)[C@@H](NC(=O)CNC(=O)[C@H](CCC(=O)O)NC(=O)C(C)(C)NC(=O)[C@H](Cc1ccc(O)cc1)NC)[C@@H](C)O)[C@@H](C)O)C(=O)NC(C)(C)C(=O)N[C@@H](CCCCN)C(=O)NC(C)(C)C(=O)N[C@@H](CC(C)C)C(=O)N[C@@H](CC(=O)O)C(=O)N[C@@H](CCCCN)C(=O)N[C@@H](CCC(N)=O)C(=O)N[C@@H](CCCNC(=N)N)C(=O)N[C@@H](CCC(N)=O)C(=O)N[C@@](C)(CC)C(=O)N[C@@H](CCC(=O)O)C(=O)N[C@@H](Cc1ccccc1)C(=O)N[C@H](C(=O)N[C@@H](CCCNC(=N)N)C(=O)N[C@@H](Cc1c[nH]cn1)C(=O)N[C@@H](CC(C)C)C(=O)N[C@@H](CC(C)C)C(=O)N[C@@H](CC(N)=O)C(=O)N[C@@H](CCCCN)C(=O)NC(C)(C)C(=O)N[C@H](C(=O)N[C@@H](CCCNC(=N)N)C(=O)N[C@@H](CCC(N)=O)C(=O)N[C@@H](CCCNC(=N)N)C(=O)N[C@@H](Cc1ccc(O)cc1)C(N)=O)[C@@H](C)O)C(C)C [Example 21] (H-[NMeY][Aib]EGT[αMeF]TSDK([Gly-Gly-Gly-Gly-Palmitoyl])[Aib]K[Aib]LDKQRQ[Iva]EFVRHLLNK[Aib]TRQRY-NH2) | −27.9%
CCCCCCCCCCCCCCCC(=O)NCC(=O)NCC(=O)NCC(=O)NCC(=O)NCCCC[C@H](NC(=O)[C@H](CC(=O)O)NC(=O)[C@H](CO)NC(=O)[C@@H](NC(=O)[C@](C)(Cc1ccccc1)NC(=O)[C@@H](NC(=O)CNC(=O)[C@H](CCC(=O)O)NC(=O)C(C)(C)NC(=O)[C@H](Cc1ccc(O)cc1)NC)[C@@H](C)O)[C@@H](C)O)C(=O)N[C@@H](CO)C(=O)N[C@@H](CCCCN)C(=O)NC(C)(C)C(=O)N[C@@H](CC(C)C)C(=O)N[C@@H](CC(=O)O)C(=O)N[C@@H](CCCCN)C(=O)N[C@@H](CCC(N)=O)C(=O)N[C@@H](CCCNC(=N)N)C(=O)N[C@@H](CCC(N)=O)C(=O)N[C@@](C)(CC)C(=O)N[C@@H](CCC(=O)O)C(=O)N[C@@H](Cc1ccccc1)C(=O)N[C@H](C(=O)N[C@@H](CCCNC(=N)N)C(=O)N[C@@H](Cc1c[nH]cn1)C(=O)N[C@@H](CC(C)C)C(=O)N[C@@H](CC(C)C)C(=O)N[C@@H](CC(N)=O)C(=O)N[C@@H](CCCCN)C(=O)NC(C)(C)C(=O)N[C@H](C(=O)N[C@@H](CCCNC(=N)N)C(=O)N[C@@H](CCC(N)=O)C(=O)N[C@@H](CCCNC(=N)N)C(=O)N[C@@H](Cc1ccc(O)cc1)C(N)=O)[C@@H](C)O)C(C)C [Example 25] (H-[NMeY][Aib]EGT[αMeF]TSDK([Gly-Gly-Gly-Gly-Palmitoyl])SK[Aib]LDKQRQ[Iva]EFVRHLLNK[Aib]TRQRY-NH2) | −41.7%
CCCCCCCCCCCCCCCC(=O)NCC(=O)NCC(=O)NCC(=O)NCC(=O)NCCCC[C@H](NC(=O)[C@H](CC(=O)O)NC(=O)[C@H](CO)NC(=O)[C@@H](NC(=O)[C@](C)(Cc1ccccc1)NC(=O)[C@@H](NC(=O)CNC(=O)[C@H](CCC(=O)O)NC(=O)C(C)(C)NC(=O)[C@H](Cc1ccc(O)cc1)NC)[C@@H](C)O)[C@@H](C)O)C(=O)NC(C)(C)C(=O)N[C@H](C(=O)NC(C)(C)C(=O)N[C@@H](CC(C)C)C(=O)N[C@@H](CC(=O)O)C(=O)N[C@@H](CCCCN)C(=O)N[C@@H](CCC(N)=O)C(=O)N[C@@H](C)C(=O)N[C@@H](CCC(N)=O)C(=O)N[C@@](C)(CC)C(=O)N[C@@H](CCC(=O)O)C(=O)N[C@@H](Cc1ccccc1)C(=O)N[C@H](C(=O)N[C@@H](CCCNC(=N)N)C(=O)N[C@@H](Cc1c[nH]cn1)C(=O)N[C@@H](CC(C)C)C(=O)N[C@@H](CC(C)C)C(=O)N[C@@H](CC(N)=O)C(=O)N[C@@H](CCCCN)C(=O)NC(C)(C)C(=O)N[C@H](C(=O)N[C@@H](CCCNC(=N)N)C(=O)N[C@@H](CCC(N)=O)C(=O)N[C@@H](CCCNC(=N)N)C(=O)N[C@@H](Cc1ccc(O)cc1)C(N)=O)[C@@H](C)O)C(C)C)[C@@H](C)CC [Example 29] (H-[NMeY][Aib]EGT[αMeF]TSDK([Gly-Gly-Gly-Gly-Palmitoyl])[Aib]I[Aib]LDKQAQ[Iva]EFVRHLLNK[Aib]TRQRY-NH2) | −43.7%
